Tested on: burn-induced SIRS patients
Assay: Burn-Induced SIRS trial survival analysis, hydrocortisone vs placebo, by patient subtype classifier
Format: in vivo, human
Design: lower mortality in the hydrocortisone group when compared to the placebo group / Mortality reduction / Mortality rate: concentration or dose not given beside the values
Conditions: for Alive / Dead / Mortality rate / Survival rate: Hydro arm; for Alive / Dead / Mortality rate / Survival rate / Mortality Reduction Group / Mortality reduction: day 28; for Mortality Reduction Group: Hydro vs Placebo
Description: The test expression data from each trial were normalized by the platform normalization matrix described above^13 so that the test data were more consistent with the training data. The classifiers (e.g., the Full Model, the SS Model, the S Model, and the P Model) were then applied to the normalized data such that the patients were classified into A, B, and C subtypes. […] Therefore, each sample in the target samples was normalized independently with the normalization matrix of the sample array platform.
Survival and mortality rates were calculated at day 28 because survival and mortality labels at other time points were not available. […] Binomial and Chi-squared with continuity correction tests were used to test for the significance of these differences.
The chi-squared p-value was calculated with continuity correction when computed for 2-by-2 tables.

[1] = Full Model, Total (all subtypes)

Work on `C[C@]12CCC(=O)C=C1CC[C@@H]1[C@@H]2[C@@H](O)C[C@@]2(C)[C@H]1CC[C@]2(O)C(=O)CO` [Hydro, hydrocortisone] yielded an Alive [1] of 9, a Dead [1] of 6 and a Mortality rate [1] of 40.0%. For the same molecule, the Survival rate [1] was 60.0%, the “Mortality Reduction Group” value [1] was “Placebo” and the Mortality reduction (Full Model, Total (all subtypes), reduction group Placebo) was 66.7%. For the same molecule, the Alive (Full Model, subtype A) was 2, the Dead (Full Model, subtype A) was 1 and the Survival rate (Full Model, subtype A) was 66.7%. The “Mortality Reduction Group” value (Full Model, subtype A) was “Placebo”, the Mortality reduction (Full Model, subtype A, reduction group Placebo) was 100.0% and the Alive (Full Model, subtype B) was 6. It also gave a Dead (Full Model, subtype B) of 1, a Mortality rate (Full Model, subtype B) of 14.3% and a Survival rate (Full Model, subtype B) of 85.7%. The “Mortality Reduction Group” value (Full Model, subtype B) was “Hydro”, the Mortality reduction (Full Model, subtype B, reduction group Hydro) was 64.3% and the Alive (Full Model, subtype C) was 1. It also gave a Dead (Full Model, subtype C) of 4, a Mortality rate (Full Model, subtype C) of 80.0% and a Survival rate (Full Model, subtype C) of 20.0%. The “Mortality Reduction Group” value (Full Model, subtype C) was “Placebo”, the Mortality reduction (Full Model, subtype C, reduction group Placebo) was 100.0% and the Alive (Full Model, subtypes CA) was 3. It also gave a Dead (Full Model, subtypes CA) of 5, a Mortality rate (Full Model, subtypes CA) of 62.5% and a Survival rate (Full Model, subtypes CA) of 37.5%. The “Mortality Reduction Group” value (Full Model, subtypes CA) was “Placebo”, the Mortality reduction (Full Model, subtypes CA, reduction group Placebo) was 100.0% and the Alive (P Model, Total (all subtypes)) was 9. It also gave a Dead (P Model, Total (all subtypes)) of 6, a Mortality rate (P Model, Total (all subtypes)) of 40.0% and a Survival rate (P Model, Total (all subtypes)) of 60.0%. The “Mortality Reduction Group” value (P Model, Total (all subtypes)) was “Placebo”, the Mortality reduction (P Model, Total (all subtypes), reduction group Placebo) was 66.7% and the Alive (P Model, subtype A) was 4. The Dead (P Model, subtype A) was 1, the Mortality rate (P Model, subtype A) was 20.0% and the Survival rate (P Model, subtype A) was 80.0%. For the same molecule, the “Mortality Reduction Group” value (P Model, subtype A) was “Placebo”, the Mortality reduction (P Model, subtype A, reduction group Placebo) was 100.0% and the Alive (P Model, subtype B) was 5. For the same molecule, the Dead (P Model, subtype B) was 1, the Survival rate (P Model, subtype B) was 83.3% and the “Mortality Reduction Group” value (P Model, subtype B) was “Hydro”. For the same molecule, the Mortality reduction (P Model, subtype B, reduction group Hydro) was 50.0%, the Alive (P Model, subtype C) was 0 and the Dead (P Model, subtype C) was 4. For the same molecule, the Mortality rate (P Model, subtype C) was 100.0%, the Survival rate (P Model, subtype C) was 0.0% and the “Mortality Reduction Group” value (P Model, subtype C) was “Placebo”. For the same molecule, the Mortality reduction (P Model, subtype C, reduction group Placebo) was 100.0%, the Alive (P Model, subtypes CA) was 4 and the Dead (P Model, subtypes CA) was 5. For the same molecule, the Mortality rate (P Model, subtypes CA) was 55.6%, the Survival rate (P Model, subtypes CA) was 44.4% and the “Mortality Reduction Group” value (P Model, subtypes CA) was “Placebo”. It also gave a Mortality reduction (P Model, subtypes CA, reduction group Placebo) of 100.0%, an Alive (S Model, Total (all subtypes)) of 9 and a Dead (S Model, Total (all subtypes)) of 6. The Mortality rate (S Model, Total (all subtypes)) was 40.0%, the Survival rate (S Model, Total (all subtypes)) was 60.0% and the “Mortality Reduction Group” value (S Model, Total (all subtypes)) was “Placebo”. For the same molecule, the Mortality reduction (S Model, Total (all subtypes), reduction group Placebo) was 66.7%, the Alive (S Model, subtype A) was 3 and the Dead (S Model, subtype A) was 2. The Mortality rate (S Model, subtype A) was 40.0%, the Survival rate (S Model, subtype A) was 60.0% and the “Mortality Reduction Group” value (S Model, subtype A) was “Placebo”. It also gave a Mortality reduction (S Model, subtype A, reduction group Placebo) of 58.3%, an Alive (S Model, subtype B) of 6 and a Dead (S Model, subtype B) of 1. For the same molecule, the Mortality rate (S Model, subtype B) was 14.3%, the Survival rate (S Model, subtype B) was 85.7% and the “Mortality Reduction Group” value (S Model, subtype B) was “Hydro”. For the same molecule, the Mortality reduction (S Model, subtype B, reduction group Hydro) was 28.6%, the Alive (S Model, subtype C) was 0 and the Dead (S Model, subtype C) was 3. The Mortality rate (S Model, subtype C) was 100.0%, the Survival rate (S Model, subtype C) was 0.0% and the “Mortality Reduction Group” value (S Model, subtype C) was “Placebo”. For the same molecule, the Mortality reduction (S Model, subtype C, reduction group Placebo) was 100.0%, the Alive (S Model, subtypes CA) was 3 and the Dead (S Model, subtypes CA) was 5. For the same molecule, the Mortality rate (S Model, subtypes CA) was 62.5%, the Survival rate (S Model, subtypes CA) was 37.5% and the “Mortality Reduction Group” value (S Model, subtypes CA) was “Placebo”. For the same molecule, the Mortality reduction (S Model, subtypes CA, reduction group Placebo) was 84.0%, the “lower mortality in the placebo group when compared to the hydrocortisone therapy group” value (SIRS patients, 28-day, C subtype, Full Model) was 100% and the “lower mortality in the placebo group when compared to the hydrocortisone therapy group” value (SIRS patients, 28-day, C subtype, P Model) was 100%. For the same molecule, the “lower mortality in the placebo group when compared to the hydrocortisone therapy group” value (SIRS patients, 28-day, C subtype, S Model) was 100%, the “lower mortality in the placebo group when compared to the hydrocortisone therapy group” value (SIRS patients, 28-day, C subtype, SS Model) was 65% and the “lower mortality in the placebo group when compared to the hydrocortisone therapy group” value (SIRS patients, 28-day, subtype A, Full, S, and P Models) was 100%. The “lower mortality in the hydrocortisone group when compared to the placebo group” value (SIRS patients, 28-day, subtype B, S Model) was 28.6%, the Alive (SS Model, Total (all subtypes)) was 9 and the Dead (SS Model, Total (all subtypes)) was 6. For the same molecule, the Mortality rate (SS Model, Total (all subtypes)) was 40.0%, the Survival rate (SS Model, Total (all subtypes)) was 60.0% and the “Mortality Reduction Group” value (SS Model, Total (all subtypes)) was “Placebo”. It also gave a Mortality reduction (SS Model, Total (all subtypes), reduction group Placebo) of 66.7%, an Alive (SS Model, subtype A) of 4 and a Dead (SS Model, subtype A) of 2. The Survival rate (SS Model, subtype A) was 66.7%, the “Mortality Reduction Group” value (SS Model, subtype A) was “Placebo” and the Mortality reduction (SS Model, subtype A, reduction group Placebo) was 40.0%. The Alive (SS Model, subtype B) was 2, the Dead (SS Model, subtype B) was 0 and the Mortality rate (SS Model, subtype B) was 0.0%. For the same molecule, the Survival rate (SS Model, subtype B) was 100.0%, the “Mortality Reduction Group” value (SS Model, subtype B) was “Placebo” and the Alive (SS Model, subtype C) was 3. For the same molecule, the Dead (SS Model, subtype C) was 4, the Mortality rate (SS Model, subtype C) was 57.1% and the Survival rate (SS Model, subtype C) was 42.9%. The “Mortality Reduction Group” value (SS Model, subtype C) was “Placebo”, the Mortality reduction (SS Model, subtype C, reduction group Placebo) was 65.0% and the Alive (SS Model, subtypes CA) was 7. It also gave a Dead (SS Model, subtypes CA) of 6, a Mortality rate (SS Model, subtypes CA) of 46.2% and a Survival rate (SS Model, subtypes CA) of 53.8%. For the same molecule, the “Mortality Reduction Group” value (SS Model, subtypes CA) was “Placebo” and the Mortality reduction (SS Model, subtypes CA, reduction group Placebo) was 56.7%.
